Assays:
Assay in all cases: combination Emax (second highest fraction inhibited in the dose matrix, 72 h); higher = more inhibition; extreme values may be limits of the assay
[1] = system: HCC1954 (Breast Carcinoma)
Summary of the method: (§1)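 Cell lines grown in DMEM/F12 or RPMI with 10% FBS were plated in 1536-well plates and held 24 hours at 37°C, 5% CO2 before 72 hours of exposure to two-drug dose matrices, with DMSO typically at 0.2%. CellTiter-Glo 2.0 luminescence gave viability, which was converted to inhibition. Vehicle wells were set to 0 and blank wells to 1. Combination Emax is the second-highest inhibition in the matrix, and Bliss excess is the observed combination effect minus the expected EA + EB − EA·EB, where EA and EB are the single-agent effects.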

U-2-OS (Osteosarcoma) = system: U-2-OS (Osteosarcoma)
Summary of the method: as §1

[2] = system: ONS-76 (Other Solid Carcinomas)
Summary of the method: as §1

[3] = system: A3-KAW (B-Cell Non-Hodgkin's Lymphoma)
Summary of the method: as §1

[4] = system: SK-MG-1 (Low Grade Glioma)
Summary of the method: as §1

Hs-445 (Non-Cancerous) = system: Hs-445 (Non-Cancerous)
Summary of the method: as §1

[5] = system: ECC10 (Gastric Carcinoma)
Summary of the method: as §1

[6] = system: PANC-10-05 (Pancreatic Carcinoma)
Summary of the method: as §1

[7] = system: A549 (Lung Adenocarcinoma)
Summary of the method: as §1

[8] = system: NCI-H1666 (Lung Adenocarcinoma)
Summary of the method: as §1

IGR-37 (Melanoma) = system: IGR-37 (Melanoma)
Summary of the method: as §1

NCI-H2591 (Mesothelioma) = system: NCI-H2591 (Mesothelioma)
Summary of the method: as §1

[9] = system: VCaP (Prostate Carcinoma)
Summary of the method: as §1

[10] = system: SK-MES-1 (Squamous Cell Lung Carcinoma)
Summary of the method: as §1

[11] = system: OS-RC-2 (Kidney Carcinoma)
Summary of the method: as §1

FU97 (Gastric Carcinoma) = system: FU97 (Gastric Carcinoma)
Summary of the method: as §1

[12] = system: MDST8 (Colorectal Carcinoma)
Summary of the method: as §1

[13] = system: CCK-81 (Colorectal Carcinoma)
Summary of the method: as §1

[14] = system: TT (Thyroid Gland Carcinoma)
Summary of the method: as §1

[15] = system: CAL-29 (Bladder Carcinoma)
Summary of the method: as §1

SMILES | combination Emax [1] | combination Emax (U-2-OS (Osteosarcoma)) | combination Emax [2] | combination Emax [3] | combination Emax [4] | combination Emax (Hs-445 (Non-Cancerous)) | combination Emax [5] | combination Emax [6] | combination Emax [7] | combination Emax [8] | combination Emax (IGR-37 (Melanoma)) | combination Emax (NCI-H2591 (Mesothelioma)) | combination Emax [9] | combination Emax [10] | combination Emax [11] | combination Emax (FU97 (Gastric Carcinoma)) | combination Emax [12] | combination Emax [13] | combination Emax [14] | combination Emax [15]
Cc1cc2ncnn2cc1Nc1ncc2c(n1)n(C1CCOCC1)c(=O)n2C [AZD7648] + O=C(c1cc(Cc2n[nH]c(=O)c3ccccc23)ccc1F)N1CCN(C(=O)C2CC2)CC1 [Olaparib] (first compound max 10 µM, 7x7, partner max 10 µM) | 0.161 | 0.118 | 0.246 | 0.656 | 0.238 | 0.373 | 0.158 | 0.299 | 0.59 | 0.0994 | 0.109 | 0.248 | 0.141 | 0.177 | 0.224 | 0.291 | 0.289 | 0.162 | 0.161 | 0.384
Cc1c2c(nn1C)CSCc1cc(n(C)n1)CSc1cc(c3ccccc3c1)OCCCc1c(C(=O)O)n(C)c3c-2c(Cl)ccc13 [AZD5991] + CN(C)CCCOc1ccc(-c2ccc3ncc4c(c3c2)n(C2CCOCC2)c(=O)n4C)cn1 [AZD0156] (first compound max 1 µM, 7x7, partner max 1 µM) | 0.978 | 0.263 | 0.239 | 1 | 0.539 | 0.949 | 0.66 | 0.334 | 0.323 | 0.238 | 0.282 | 0.185 | 0.913 | 0.196 | 0.25 | 0.318 | 0.242 | 0.88 | 0.297 | 0.545
CN(CCO)CC[C@H](CSc1ccccc1)Nc1ccc(S(=O)(=O)NC(=O)c2ccc(N3CCC([C@@H](O)c4ccccc4-c4ccc(Cl)cc4)CC3)cc2)cc1S(=O)(=O)C(F)(F)F [AZD4320] + Cc1cc2ncnn2cc1Nc1ncc2c(n1)n(C1CCOCC1)c(=O)n2C [AZD7648] (first compound max 1 µM, 7x7, partner max 10 µM) | 0.48 | 0.238 | 0.173 | 0.344 | 0.295 | 0.746 | 1 | 0.311 | 0.369 | 0.197 | 0.18 | 0.188 | 0.165 | 0.127 | 0.119 | 0.32 | 0.821 | 0.111 | 0.209 | 0.21
NC1(C(=O)N[C@@H](CCO)c2ccc(Cl)cc2)CCN(c2ncnc3[nH]ccc23)CC1 [Capivasertib] + Cn1cnc2c(F)c(Nc3ccc(Br)cc3Cl)c(C(=O)NOCCO)cc21 [Selumetinib] (first compound max 10 µM, 7x7, partner max 10 µM) | 0.805 | 0.892 | 0.873 | 0.698 | 0.681 | 0.623 | 0.506 | 0.727 | 0.922 | 0.623 | 0.897 | 0.469 | 0.487 | 0.768 | 0.439 | 0.397 | 0.757 | 0.737 | 0.587 | 0.66
CCc1c2c(nc3ccc(O)cc13)-c1cc3c(c(=O)n1C2)COC(=O)[C@]3(O)CC [SN-38] + O=C(c1cc(Cc2n[nH]c(=O)c3ccccc23)ccc1F)N1CCN(C(=O)C2CC2)CC1 [Olaparib] (first compound max 0.3 µM, 7x7, partner max 10 µM) |  | 0.205 | 0.829 |  | 0.821 | 1 | 1 | 0.76 | 0.817 | 0.532 | 0.863 | 0.575 | 0.459 |  |  | 0.277 | 0.745 | 0.587 | 0.892 | 
CN(CCO)CC[C@H](CSc1ccccc1)Nc1ccc(S(=O)(=O)NC(=O)c2ccc(N3CCC([C@@H](O)c4ccccc4-c4ccc(Cl)cc4)CC3)cc2)cc1S(=O)(=O)C(F)(F)F [AZD4320] + CN(C)CCCOc1ccc(-c2ccc3ncc4c(c3c2)n(C2CCOCC2)c(=O)n4C)cn1 [AZD0156] (first compound max 1 µM, 7x7, partner max 1 µM) | 0.327 | 0.259 | 0.178 | 0.228 | 0.274 | 0.497 | 1 | 0.373 | 0.175 | 0.141 | 0.116 | 0.13 | 0.19 | 0.208 | 0.209 | 0.258 | 0.772 |  | 0.269 | 0.104
Cc1nc(Nc2ncc(C(=O)Nc3c(C)cccc3Cl)s2)cc(N2CCN(CCO)CC2)n1 [Dasatinib] + CC(=O)Nc1cccc(-n2c(=O)n(C3CC3)c(=O)c3c(Nc4ccc(I)cc4F)n(C)c(=O)c(C)c32)c1 [Trametinib] (first compound max 2 µM, 7x7, partner max 1 µM) | 0.279 | 0.9 | 0.888 | 0.464 | 0.65 | 0.517 | 0.856 | 0.877 | 0.97 | 0.651 | 0.838 | 0.527 | 0.0632 | 0.941 | 0.353 | 0.422 | 0.781 | 0.641 | 0.441 | 0.625
CC(=O)c1c(C)c2cnc(Nc3ccc(N4CCNCC4)cn3)nc2n(C2CCCC2)c1=O [Palbociclib] + CN(CC[C@H](CSC1=CC=CC=C1)NC2=C(C=C(C=C2)S(=O)(=O)NC(=O)C3=CC=C(C=C3)N4CCC(CC4)[C@H](C5=CC=CC=C5C6=CC=C(C=C6)Cl)O)S(=O)(=O)C(F)(F)F)CCO [AZD4320] (first compound max 10 µM, 7x7, partner max 1 µM) | 0.32 | 0.355 |  | 0.867 | 0.563 | 0.95 |  |  | 0.723 |  |  | 0.249 |  | 0.289 | 0.365 |  | 0.781 |  |  | 0.172
C[C@@H]1COCCN1c1cc(C2([S@](C)(=N)=O)CC2)nc(-c2ccnc3[nH]ccc23)n1 [AZD6738] + O=C(c1cc(Cc2n[nH]c(=O)c3ccccc23)ccc1F)N1CCN(C(=O)C2CC2)CC1 [Olaparib] (first compound max 10 µM, 7x7, partner max 10 µM) | 0.353 | 0.723 | 0.894 | 0.984 | 0.552 | 0.835 | 0.54 | 0.486 | 0.809 | 0.331 | 0.738 | 0.348 | 0.374 | 0.696 | 0.435 | 0.332 | 0.677 |  | 0.419 | 0.71
CN(CCO)CC[C@H](CSc1ccccc1)Nc1ccc(S(=O)(=O)NC(=O)c2ccc(N3CCC([C@@H](O)c4ccccc4-c4ccc(Cl)cc4)CC3)cc2)cc1S(=O)(=O)C(F)(F)F [AZD4320] + C[C@@H](Nc1cc(F)cc(F)c1)c1cc(C(=O)N(C)C)cc2c(=O)cc(N3CCOCC3)oc12 [AZD8186] (first compound max 1 µM, 7x7, partner max 3 µM) | 0.546 | 0.382 | 0.338 | 0.761 | 0.652 | 0.97 | 1 | 0.383 | 0.401 | 0.42 | 0.341 | 0.214 | 0.37 | 0.434 | 0.581 | 0.507 |  | 0.338 | 0.803 | 0.515
COc1nnc2ccc(N3CCC(c4ccc(OCCN5CCN(C)C(=O)[C@H]5C)cc4)CC3)nn12 [AZD5153] + CN(CC[C@H](CSC1=CC=CC=C1)NC2=C(C=C(C=C2)S(=O)(=O)NC(=O)C3=CC=C(C=C3)N4CCC(CC4)[C@H](C5=CC=CC=C5C6=CC=C(C=C6)Cl)O)S(=O)(=O)C(F)(F)F)CCO [AZD4320] (first compound max 1 µM, 7x7, partner max 1 µM) | 0.322 | 0.319 |  | 1 | 0.566 | 0.889 |  |  | 0.735 |  |  | 0.395 |  | 0.631 | 0.292 |  | 0.918 |  |  | 0.401
C[C@@H](c1ccc2nccn2c1)n1nnc2ncc(-c3cnn(C)c3)nc21 [Savolitinib] + CN(CC[C@H](CSC1=CC=CC=C1)NC2=C(C=C(C=C2)S(=O)(=O)NC(=O)C3=CC=C(C=C3)N4CCC(CC4)[C@H](C5=CC=CC=C5C6=CC=C(C=C6)Cl)O)S(=O)(=O)C(F)(F)F)CCO [AZD4320] (first compound max 1 µM, 7x7, partner max 1 µM) | 0.412 | 0.385 |  | 0.128 | 0.152 | 0.625 |  |  | 0.165 |  |  | 0.15 |  | 0.18 | 0.324 |  | 0.626 |  |  | 0.174
CC(=O)Nc1cccc(-n2c(=O)n(C3CC3)c(=O)c3c(Nc4ccc(I)cc4F)n(C)c(=O)c(C)c32)c1 [Trametinib] + Cc1nc(-c2cn3c(n2)-c2ccc(-c4cnn(C(C)(C)C(N)=O)c4)cc2OCC3)n(C(C)C)n1 [Taselisib] (first compound max 1 µM, 7x7, partner max 10 µM) | 0.949 | 1 | 0.975 | 0.726 | 0.85 | 0.611 | 0.989 | 0.838 | 1 | 0.988 | 1 | 0.543 | 0.47 | 1 | 0.627 |  | 0.865 | 0.98 | 0.666 | 0.956

Source: the supplement of paper PMC11061612
